Test results taken from patent publication US20100028447A1, “Intranasal, Buccal, And Sublingual Administration Of Metanicotine Analogs” (TARGACEPT, INC., priority 2007, published 2010).
Where “and” joins values, the source holds several entries; their conditions need not be identical. Equal values may be shown once. Entries after “also recorded” stand apart in the source; their conditions may differ. Read-outs that look alike come from different tables or passages of the source.

Experiments:
[1] = Brain-to-plasma ratio after oral gavage or intranasal administration (Example 4); assay type: in vivo, Sprague-Dawley rats
Method: Eight treatment groups of nine rats each were used (see Study Design, Table 6). […] The animals were housed up to three per cage and identified by cage labels. A single room was used for this study. […] Food was withheld from the animals for a minimum of 12 hours before the study and during the study, and was returned at 4 hours post-dose. Water was supplied ad libitum during the study.
All dosing solutions were prepared in isotonic PBS (phosphate buffered saline) buffer at pH 7.4. […] For intranasal dosing, the animals were anesthetized with CO2 prior to dosing, and the solution was administered in a droplet from a pipette.
For each treatment group, brain and plasma samples were collected at 10, 30 and 60 minutes post-dose. Blood samples were placed in heparinized tubles and spun at 13,000 rpm for 5 minutes. The plasma was placed in polyethylene tubes and frozen (−60 to −80° C.). Brain samples were also placed in chilled tubes and frozen (−60 to −80° C.). Samples remained chilled during subsequent processing.
Brain samples were thawed and weighed. […] After homogenation, the volume of each sample was recorded and the samples were frozen at −80° C. until analysis.
Plastic tubes were used for all steps. Standards were prepared at concentrations of 1000, 500, 250, 100, 50, 10, 5 and 1 ng/mL by serial dilution. Quality control samples were also prepared at 500, 100, and 5 ng/mL. […] Brain standards and quality control samples were treated identically to the test compound samples.
(§1) Brain samples (200 μL) were loaded onto a 96 well plate and then transferred to 400 μL of pure acetonitrile (containing 10 ng/mL nicotine as an internal standard) in a Sirocco Protein Precipitation Plate (Waters Corporation). The resulting suspensions were mixed and then filtered into a clean 96-well collection plate using a vacuum. A 200 μL aliquot of the resulting filtrate was then transferred to plastic HPLC vials for analysis.
as §1, with “Plasma” for “Brain”, “(50” for “(200”, “150” for “400”, “80” for “200”
(§2) Brain samples (200 μL) were loaded onto a 96 well plate and then transferred to 400 μL of acetonitrile containing internal standard (100 ng/mL Pindolol) in a Sirocco Protein Precipitation Plate (Waters Corporation). The resulting suspensions were mixed and then filtered into a clean 96-well collection plate using a vacuum. The resulting filtrates were then evaporated to dryness under nitrogen at 37° C. The resulting residues were reconstituted with 200 μL of water. The samples were then mixed, centrifuged, and transferred (100 μL) to plastic HPLC vials for analysis.
as §2, with “(50” for “(200”, “150” for “400”, “100” for “200”

[2] = In situ brain perfusion, single time-point method; conditions: for Kin relative to values reported for drugs that do not substantially penetrate the CNS: 50 μM
Method: Animals used in this study were Sprague-Dawley rats (approximate weight 250-300 grams), obtained from Hilltop Lab Animals, Scottdale, Pa. Upon arrival, the rats were assigned randomly to treatment groups and acclimated for at least 24 hours. The animals were housed two per cage and identified by cage labels. A single room was used for this study. The animals were supplied with water and a commercial rodent diet ad libitum. On the day of the experiment, each rat was anesthetized intraperitoneally with Ketamine HCl/Xylazine HCl solution prior to being implanted with a cannula into the left carotid artery. Branch arteries were […], and the cardiac supply was cut off prior to brain perfusion.
Perfusion was performed using the single time-point method. […] Following 30 seconds of perfusion, the pump was stopped, and the brain was removed from the skull immediately. The brain was cut longitudinally in […]. Each left cerebral hemisphere was placed into a chilled tube, frozen on dry ice, and stored frozen at −60° C. to −80° C. until analyzed. […] Test articles were perfused at concentrations of 50 μM. The outline of the experimental treatments and the target and measured concentrations of the test articles and control compounds in the perfusate are presented in Table 3.
The left brain hemisphere from each rat was thawed and weighed. Methanol (20% aqueous) was added to each left brain hemisphere at approximately 4 mL per 1 g of brain tissue, and the mixture was homogenized using sonication with a VirSonic Ultrasonic Cell Disruptor 100 (VirTis). The test articles and two reference compounds were analyzed in the resulting homogenate by using LC/MS/MS.
The unidirectional brain transfer constants Kin (mL/g/min) were determined for the test articles and the high permeability reference, antipyrine, using the following equation for the single-point perfusion assay: […]
where: Cbr/Cpf is the apparent brain distribution volume (mL/g of brain tissue); Cbr is the concentration of drug in the brain tissue (pmol of drug per g of brain tissue); Cpf is the drug concentration in the perfusion fluid (pmol/mL of perfusate); and t is the net perfusion time (minutes).
Graphic representation and statistical analyses of the data were performed using GraphPad Prism software.

[3] = Sprague-Dawley, rat, in vivo, 10 mg/kg, Brain-to-Plasma Ratio
[4] = Sprague-Dawley, rat, in vivo, 10 mg/kg, Mean Ratio (brain-to-plasma)
[5] = Sprague-Dawley, rat, in vivo, intranasal, 1 mg/kg, Average brain-to-plasma ratio
[6] = Sprague-Dawley, rat, in vivo, po, 5 mg/kg, Average brain-to-plasma ratio
[7] = Sprague-Dawley, rat, in vivo, 30 s
[8] = Table 5 Treatment 1: Compound A perfused with references, Average ± STD
[9] = Table 5 Treatment 1: Compound A perfused with references, Rat 1
[10] = Table 5 Treatment 1: Compound A perfused with references, Rat 2
[11] = Table 5 Treatment 1: Compound A perfused with references, Rat 3
[12] = Table 5 Treatment 2: Compound A perfused with references + CYP2D6 inhibitor Quinidine, Average ± STD
[13] = Table 5 Treatment 2: Compound A perfused with references + CYP2D6 inhibitor Quinidine, Rat 1
[14] = Table 5 Treatment 2: Compound A perfused with references + CYP2D6 inhibitor Quinidine, Rat 2
[15] = Table 5 Treatment 2: Compound A perfused with references + CYP2D6 inhibitor Quinidine, Rat 3
[16] = Table 4 Treatment 2: Compound B perfused with references + MAO inhibitor Pargyline, Rat 1
[17] = Table 4 Treatment 2: Compound B perfused with references + MAO inhibitor Pargyline, Rat 2
[18] = Table 4 Treatment 2: Compound B perfused with references + MAO inhibitor Pargyline, Rat 3

CN[C@@H](C)C/C=C/c1cncc(OC)c1 [Compound A, (2S)-(4E)-N-methyl-5-(3-(5-methoxypyridin)yl)-4-penten-2-amine]
Plasma Conc. ([1]; Group 1, OG, 10 mg/kg, 30 min, 10 mg/kg): 216 ng/mL and 278 ng/mL | Plasma Conc. ([1]; Group 1, OG, 10 mg/kg, 60 min, 10 mg/kg): 239 ng/mL and 234 ng/mL | Plasma Conc. ([1]; Group 3, OG, 10 mg/kg, 10 min, 10 mg/kg): 327 ng/mL and 249 ng/mL | Kp at 0.5 h [1, 3]: 0.044 | Kp at 1 h [1, 3]: 0.038 | concentration at 30 min ([1]; Sprague-Dawley, rat, in vivo, 10 mg/kg, Group 1, OG, 10 mg/kg, 30 min, read-out: Brain Conc.): 2.04 ng/mL and 9.6 ng/g | concentration at 30 min ([1]; Sprague-Dawley, rat, in vivo, 10 mg/kg, Group 1, OG, 10 mg/kg, 30 min, read-out: Plasma Conc.): 174 ng/mL | concentration at 60 min ([1]; Sprague-Dawley, rat, in vivo, 10 mg/kg, Group 1, OG, 10 mg/kg, 60 min, read-out: Brain Conc.): 1.26 ng/mL and 6.08 ng/g | concentration at 60 min ([1]; Sprague-Dawley, rat, in vivo, 10 mg/kg, Group 1, OG, 10 mg/kg, 60 min, read-out: Plasma Conc.): 158 ng/mL | concentration at 60 min ([1]; Sprague-Dawley, rat, in vivo, 10 mg/kg, Group 2, OG, 10 mg/kg, 60 min, read-out: Brain Conc.): 2.81 ng/mL and 13.9 ng/g | concentration at 10 min ([1]; Sprague-Dawley, rat, in vivo, 10 mg/kg, Group 3, OG, 10 mg/kg, 10 min, read-out: Plasma Conc.): 313 ng/mL | Kp at 0.5 h [1, 4]: 0.042 | Kp at 1 h [1, 4]: 0.032 | Kp at […] [1, 4]: 0.039 | Kp at 0.5 h ([1]; Sprague-Dawley, rat, in vivo, intranasal, 0.1 mg/kg, Brain-to-plasma ratio): 5.52 | Kp at […] ([1]; Sprague-Dawley, rat, in vivo, intranasal, 0.1 mg/kg, Brain-to-plasma ratio (average value)): 2.21 | Kp at 0.5 h [1, 5]: 4.28 | Kp at 1 h [1, 5]: 6.4 | Kp at […] [1, 5]: 1.58 | Kp at 0.5 h [1, 6]: 2.37 | Kp at 1 h [1, 6]: 3.38 | Kp at […] [1, 6]: 1.75 | Exposures in plasma and brain, Compound A compared with Compound B ([1]; by both intranasal and oral administration): much greater | Brain-to-plasma ratios, intranasal as opposed to oral gavage administration ([1]; rat, in vivo): generally greater | Brain penetration (brain concentration, Kin) in the absence or presence of the CYP2D6 inhibitor Quinidine ([2]; N=3): no significant difference; also recorded: did not affect | Kin relative to values reported for drugs that do not substantially penetrate the CNS [2, 7]: more than 100 times | Brain Concentration (corrected for drug retained in vascular volume) [2, 8]: 5504.5 ± 961.7 pmol/g | Kin [2, 8]: 0.198+ ± 0.035 mL/g/min | Brain Concentration (corrected for drug retained in vascular volume) [2, 9]: 6558.8 pmol/g | Kin [2, 9]: 0.236 mL/g/min | Brain Concentration (corrected for drug retained in vascular volume) [2, 10]: 5279.1 pmol/g | Kin [2, 10]: 0.190 mL/g/min | Brain Concentration (corrected for drug retained in vascular volume) [2, 11]: 4675.5 pmol/g | Kin [2, 11]: 0.168 mL/g/min | Brain Concentration (corrected for drug retained in vascular volume) [2, 12]: 5803.0 ± 278.8 pmol/g | Kin [2, 12]: 0.212 ± 0.010 mL/g/min | Brain Concentration (corrected for drug retained in vascular volume) [2, 13]: 5574.4 pmol/g | Kin [2, 13]: 0.203 mL/g/min | Brain Concentration (corrected for drug retained in vascular volume) [2, 14]: 6113.5 pmol/g | Kin [2, 14]: 0.223 mL/g/min | Brain Concentration (corrected for drug retained in vascular volume) [2, 15]: 5721.1 pmol/g | Kin [2, 15]: 0.209 mL/g/min | Average Kin of Compound A (absence of Quinidine) compared with Compound B (absence of Pargyline) ([2]; rat, in vivo): higher | Potential to penetrate the brain ([2]; rat, in vivo): good potential

CNCC/C=C/c1cccnc1 [Compound B, N-methyl-(4-pyridin-3-yl-but-3-enyl)-amine]
Kp at […] ([1]; Sprague-Dawley, rat, in vivo, inhaled or intranasal, 1 mg/kg, intranasal 1 mg/kg with pargyline, 10 minute time point, two animals, read-out: Brain-to-plasma ratio (average value)): 0.89 | Kp at 0.5 h ([1]; Sprague-Dawley, rat, in vivo, inhaled or intranasal, 1 mg/kg, intranasal 1 mg/kg with pargyline, 30 minute time point, one animal, read-out: Brain-to-plasma ratio): 0.21 | Kp at […] ([1]; Sprague-Dawley, rat, in vivo, inhaled or intranasal, 1 mg/kg, intranasal 1 mg/kg without pargyline, 10 minute time point, two animals, read-out: Brain-to-plasma ratio (average value)): 1.09 | Kp ([1]; Sprague-Dawley, rat, in vivo, po, 10 mg/kg, oral gavage administration, two animals, both at the minute time point): 0.22 | Brain concentration and Kin in the presence of the MAO inhibitor Pargyline compared to alone [2, 7]: ^Significantly higher than the corresponding values of Compound B in the absence of enzymatic inhibitor (p < 0.05, two-tailed t-test). | Kin relative to values reported for drugs that do not substantially penetrate the CNS [2, 7]: more than 100 times | Brain Concentration (corrected for drug retained in vascular volume) ([2]; Table 4 Treatment 1: Compound B perfused with references, Average ± STD): 2681.0 ± 513.0 pmol/g | Brain Concentration (corrected for drug retained in vascular volume) ([2]; Table 4 Treatment 1: Compound B perfused with references, Rat 1): 2725.9 pmol/g | Brain Concentration (corrected for drug retained in vascular volume) ([2]; Table 4 Treatment 1: Compound B perfused with references, Rat 2): 3170.1 pmol/g | Brain Concentration (corrected for drug retained in vascular volume) ([2]; Table 4 Treatment 1: Compound B perfused with references, Rat 3): 2147.0 pmol/g | Brain Concentration (corrected for drug retained in vascular volume) ([2]; Table 4 Treatment 2: Compound B perfused with references + MAO inhibitor Pargyline, Average ± STD): 3652.8^ ± 293.1 pmol/g | Brain Concentration (corrected for drug retained in vascular volume) [2, 16]: 3358.2 pmol/g | Kin [2, 16]: 0.110 mL/g/min | Brain Concentration (corrected for drug retained in vascular volume) [2, 17]: 3655.8 pmol/g | Kin [2, 17]: 0.120 mL/g/min | Brain Concentration (corrected for drug retained in vascular volume) [2, 18]: 3944.4 pmol/g | Kin [2, 18]: 0.129 mL/g/min | Brain concentration and Kin in the presence of the MAO inhibitor Pargyline compared to alone ([2]; rat, in vivo): significantly increased | Potential to penetrate the brain ([2]; rat, in vivo): good potential
